The source of these data is patent US20050002922A1, “Use of secretin and secretin analogs to treat affective disorders” (priority 2003, published 2005).

Series [1] concerns rats (fear-potentiated startle). Briefly: Fear-potentiated startle paradigm in rats. Type of series: in vivo, rat. The procedure:
The conditioned stimulus (CS) was a 3.7 second light (80 lux) produced by an 8 W fluorescent bulb (100 msecond rise time) located 10 cm behind each cage. Luminosity was measured using a VWR light meter (Atlanta, Ga.). The US was a 0.5 second shock, delivered to the floorbars and produced by a shock generator (SGS-004; LeHigh Valley, Beltsville, Md.). Shock intensities (measured as in Cassella et al., Physiol Behav 36:1187-91, 1986) were 0.4 mA. The presentation and sequencing of all stimuli were under the control of the Macintosh G3 computer using custom-designed software (The Experimenter; Glassbeads Inc., Newton, Conn.).
The experiment was run in four replications.
Fear conditioning. On each of the next 2 days, rats were returned to the test chambers and 5 minutes later given the first of 10 light-footshock pairings. The 0.4 mA 0.5 second shock was delivered during the last 0.5 second of the 3.7 second light. The average intertrial interval (ITI) was 4 minutes (range, 3-5 minutes).

In series [2] the test system is rats (baseline acoustic startle). Particulars: rat, in vivo, ip.
Experimental: A total of 72 male Sprague-Dawley rats (Charles River, Portage, Mich.) weighing 350-450 g were used. Animals were maintained on a 12:12 hour light-dark cycle (lights on at 0700) with food and water continuously available. All rats were housed in group cages of four rats each in a temperature-controlled (24° C.) animal colony.
Animals were trained and tested in 8×15×15 cm Plexiglas® and wire-mesh cages. Each cage floor consisted of four 6.0 mm diameter stainless-steel bars spaced 18 mm apart. Each cage was suspended between compression springs within a steel frame and located within a custom-designed 90×70×70 cm ventilated sound-attenuating chamber. Background noise (60 dB wide-band) was provided by a General Radio Type 1390-B noise generator (Concord, Mass.) and delivered through high-frequency speakers (Radio Shack Supertweeter; Tandy, Fort Worth, Tex.) located 5 cm in front of each cage. Sound level measurements (sound pressure level) were made with a Bruel & Kjaer (Marlborough, Mass.) model 2235 sound-level meter (A scale; random input) with the microphone (Type 4176) located 7 cm from the center of the speaker (approximating the distance of the rat's ear from the speaker). […]
For another series, the system named is Fos protein expression. Briefly: Brain gene expression measured by Fos protein expression. The format is in vivo, rat.
Series [3] relates to rats (spatial learning and memory).
Text: The M swim maze was developed to test spatial learning and memory (e.g., functional memory). The animal has no visual or spatial cues in the pool and must rely on extra-maze cues (e.g., light setup outside the pool that can be seen by the swimming animal). Through a series of trials a rat develops “place learning” or knowledge about the position of the escape platform based upon the extra-maze cues. The platform can be moved to a different arm of the M configuration each day, combining spatial memory with working memory. This paradigm involves extinction of the prior memory and resolution of a new spatial problem.
Test Animals. A total of 40 male rats were used.
Behavioral Procedures and Data Analysis. Rats (10/group) were treated by tail vein injection with vehicle, 0.4 μg/kg/day, 4.0 μg/kg/day, and 40 μg/kg/day secretin on post natal day 25 through postnatal day 70 (45 days). Learning and memory was evaluated in a water M-maze. The evaluation consisted of 10 trials/day for each animal on 4 successive days to assess short-term memory. The goal was to escape from the maze via a platform located on the lighted arm of an M-shaped maze. After placement of the animal in the central arm of the M-shaped maze, the goal side was varied for each animal at each trial according to a predetermined computer generated sequence. The same animals were also tested 5 days after the initial testing to assess long-term memory. On that day each animal were allowed 10 trials in the maze and time to escape was measured. Significance was calculated versus the control group value for the same day of testing using a T-test.

Take secretin: the “minimum dose possessing anxiolytic properties in fear-potentiated startle paradigm” value in series [1] (i.p.) was 3 µg/kg. In addition, the “effect on expression of fear-potentiated startle” value in series [1] (i.p. 1-100 μg/kg immediately prior to testing) is on record as “dose dependently impaired expression of fear-potentiated startle”. Moreover, in series [1] (i.p. immediately prior to testing), the “dose giving greatest impairment of fear-potentiated startle” value was found to be 10 µg/kg. In addition, the “effect of higher doses on baseline startle” value in series [2] was “tended to suppress baseline startle”. Further, the “dose giving peak change in Fos protein expression” value with Fos protein expression (i.p. or i.v.) was 40 µg/kg. In addition, in the series with Fos protein expression (i.v. or i.p.), the “minimum dose to detect significant changes in brain gene expression (Fos protein)” value was 4 µg/kg. The “ability to learn and remember a spatial associative memory task” value in series [3] (rat, in vivo, iv) is “does not impair”. For the same substance, the “learning performance in water M-maze relative to controls” value in series [3] (rats, 0.4 or 4.0 μg/kg/day i.v., after 4 training days, maintained after 5 day rest) is reported as “improved in learning performance”. This substance displayed a minimum dose that improves functional memory in M swim maze in series [3] (rats, i.v.) of 0.4 µg/kg.
